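Exposure lasted 48 hours, with cells grown in 96-well plates and compounds tested at five concentrations. GI50 = concentration required for 50% inhibition of growth. TGI: concentration producing complete growth inhibition.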 Bounds are passed on as bounds.

Test systems include A498 renal; ACHN renal; CAKI-1 renal; CCRF-CEM leukemia; EKVX NSCLC; LOX IMVI melanoma; TK-10 renal; BT-549 breast; MDA-MB-435; MCF7 breast.
Test in all cases: NCI anticancer screen, dose series, 48 h

As to `CCOC(=O)[C@H](CCCNC(=O)OC(C)(C)C)NCc1ccc(OC)c(OC)c1`, the TGI with A498 renal, in the assay on ACHN renal, with CAKI-1 renal, in the assay with CCRF-CEM leukemia, with EKVX NSCLC and in the assay with LOX IMVI melanoma was over 100 µM throughout. Also, in the assay with TK-10 renal, the TGI was over 100 µM.

For the molecule `CC(=O)c1c(CBr)n([O-])c2ccccc2[n+]1=O`, the GI50 with A498 renal was 23.6 µM; in the assay with ACHN renal, 8.12 µM; in the assay with BT-549 breast, 9.61 µM; in the assay on CAKI-1 renal, 12.9 µM; in the assay on CCRF-CEM leukemia, 2140 nM; with EKVX NSCLC, 13.2 µM. The GI50 with LOX IMVI melanoma was 10.8 µM; in the assay with MDA-MB-435 it was 12.5 µM; in the assay with TK-10 renal, 5.44 µM. The TGI in the assay with A498 renal is 54.8 µM; in the assay on ACHN renal, 20.4 µM; in the assay on BT-549 breast, 21.5 µM; in the assay with CAKI-1 renal, 25.8 µM; with CCRF-CEM leukemia, 8.12 µM; in the assay with EKVX NSCLC it was 30.3 µM. Also, the values for the TGI in the assay on LOX IMVI melanoma, in the assay on MDA-MB-435 and with TK-10 renal were 23 µM, 25.6 µM and 16.6 µM, respectively.

For the molecule `O/N=C\c1c(O)ccc2ccccc12`, the TGI with A498 renal was over 100 µM; with ACHN renal it was 70.1 µM; in the assay with CAKI-1 renal it was over 100 µM; with CCRF-CEM leukemia, over 100 µM; in the assay on EKVX NSCLC, over 100 µM; in the assay on LOX IMVI melanoma, over 100 µM. Also, the TGI in the assay on MCF7 breast, in the assay on MDA-MB-435 and in the assay with TK-10 renal was over 100 µM each time.

In the case of `N#CC(C#N)=c1[nH]c2cccc3c2-c2c(cccc2c3=C(C#N)C#N)[nH]1`, the TGI in the assay on A498 renal, with CAKI-1 renal, with CCRF-CEM leukemia, in the assay on EKVX NSCLC, with LOX IMVI melanoma and in the assay on TK-10 renal was over 100 µM throughout.

With `CC(C)(C)N1CC2(CCCCC2)C1=O`, the TGI in the assay on A498 renal, in the assay on ACHN renal, in the assay with CAKI-1 renal, in the assay with CCRF-CEM leukemia, in the assay on EKVX NSCLC and with LOX IMVI melanoma was over 100 µM throughout. This molecule also returned a TGI in the assay on TK-10 renal of over 100 µM.

In the case of `O=S(O)CCCCSSCc1ccccc1CSSCCCCS(=O)O`, the TGI with A498 renal is over 100 µM; with ACHN renal, 74 µM; in the assay on CAKI-1 renal, 81.8 µM; with CCRF-CEM leukemia it was 42.5 µM; with EKVX NSCLC, over 100 µM; in the assay with LOX IMVI melanoma, 28.7 µM. Moreover, in the assay with TK-10 renal, the TGI is over 100 µM.

As for `Cc1cc(C)n(CCNCCn2nc(C)cc2C)n1`, the TGI in the assay with A498 renal, in the assay on ACHN renal, with CAKI-1 renal, with CCRF-CEM leukemia, in the assay on EKVX NSCLC and in the assay with LOX IMVI melanoma was over 100 µM each time. The molecule also registered a TGI with TK-10 renal of over 100 µM.

As to `O=C(CCC/C(CC(=O)c1ccc(Br)cc1)=N\O)Nc1ccccc1`, the TGI in the assay on ACHN renal, in the assay on CCRF-CEM leukemia, in the assay with EKVX NSCLC, with LOX IMVI melanoma and with TK-10 renal was over 100 µM each time.

`COc1ccccc1NC(=O)C1=C(C)NC(C)=C(C(=O)Nc2ccccc2OC)C1c1ccc([N+](=O)[O-])cc1`: the TGI in the assay on A498 renal, in the assay with ACHN renal, with CAKI-1 renal, in the assay on CCRF-CEM leukemia, in the assay on EKVX NSCLC and with LOX IMVI melanoma was over 100 µM in each case. This molecule also yielded a TGI with TK-10 renal of over 100 µM.

As for `CCOC(=O)CCc1c(C)c2c(OC(C)=O)cc(OC(C)=O)cc2oc1=O`, the TGI in the assay on ACHN renal, in the assay with CAKI-1 renal, with EKVX NSCLC and in the assay on TK-10 renal was over 100 µM in each case.

For the molecule `NC1CCCC[C@H]1N.N[C@@H]1CCCC[C@@H]1N.O=C(P(=O)([O-])[O-])P(=O)([O-])[O-].[Pt+4].[Pt+4]`, the GI50 in the assay on A498 renal is over 100 µM; in the assay on ACHN renal, 82.2 µM; in the assay on CAKI-1 renal, over 100 µM; in the assay with CCRF-CEM leukemia, 14100 nM; with EKVX NSCLC, over 100 µM; in the assay with LOX IMVI melanoma it was over 100 µM. In addition, the GI50 in the assay on TK-10 renal was over 100 µM. Moreover, the TGI in the assay on A498 renal, with ACHN renal, with CAKI-1 renal, in the assay with CCRF-CEM leukemia, in the assay with EKVX NSCLC and in the assay on LOX IMVI melanoma was over 100 µM in each case. Moreover, in the assay with TK-10 renal, the TGI was over 100 µM.

For the molecule `CC(=O)OCC1OC([S-])C(OC(C)=O)C(OC(C)=O)C1OC(C)=O.CC[PH+](CC)CC.CC[PH+](CC)CC.[Au].[Au]` (stereo unspecified), the GI50 in the assay on ACHN renal was 1.01 µM; in the assay with CAKI-1 renal, 0.292 µM; in the assay with CCRF-CEM leukemia it was 74.8 nM; with EKVX NSCLC it was 0.405 µM; with LOX IMVI melanoma, 0.142 µM; in the assay on TK-10 renal it was 0.717 µM. Also, the TGI in the assay with ACHN renal was 2.38 µM; in the assay on CAKI-1 renal it was 0.987 µM; with CCRF-CEM leukemia, 0.277 µM; with EKVX NSCLC, 0.921 µM; with LOX IMVI melanoma, 0.317 µM; with TK-10 renal it was 1.69 µM.

Turning to `O=C(Nc1ccc([N+](=O)[O-])cc1)C1C(=O)C(=O)N(c2ccc([N+](=O)[O-])cc2)C1=O` (stereo unspecified), the TGI was over 100 µM in the assay on A498 renal; over 100 µM in the assay with ACHN renal; over 100 µM in the assay with CAKI-1 renal; over 100 µM with CCRF-CEM leukemia; over 100 µM in the assay on EKVX NSCLC; 30.3 µM with LOX IMVI melanoma. This molecule returned a TGI with TK-10 renal of over 100 µM.

As to `O=C(/C=C/c1ccccc1)/C=C/c1ccccc1`, the TGI in the assay on A498 renal is over 100 µM; in the assay on ACHN renal, 38.2 µM; in the assay on CAKI-1 renal it was over 100 µM; in the assay with CCRF-CEM leukemia, over 100 µM; in the assay with LOX IMVI melanoma, 31.7 µM; in the assay on TK-10 renal, over 100 µM.

In the case of `O=C(CSc1nnc(-c2ccccc2NC(=O)C(F)(F)F)c(=O)[nH]1)NC(=O)Nc1ccccc1`, the TGI with CAKI-1 renal, with CCRF-CEM leukemia, in the assay with EKVX NSCLC, with LOX IMVI melanoma and in the assay on TK-10 renal was over 100 µM throughout.

The record behind these values is PubChem BioAssay (NCI).
